# Laboratory results: ChEMBL document CHEMBL5230155, “Recent contributions of quinolines to antimalarial and anticancer drug discovery research” (Eur J Med Chem, 2021)
# How the values were obtained:
# BEL-7404 tumor cell line = assay: Antiproliferative activity against human BEL-7404 cells; type: functional, cell-based
# HepG2 [1] = assay: Antitumor activity against human HepG2 cells xenografted in nude mouse assessed as reduction in tumor increment rate at 20 mg/kg/day (reference value: 100%); type: functional; parameters: scale not given: the % may be the effect or the level left
# NCI-H460 = assay: Antiproliferative activity against human NCI-H460 cells; type: functional, cell-based
# SK-OV-3 = assay: Antiproliferative activity against human SK-OV-3 cells; type: functional, cell-based
# HepG2 [2] = assay: Cytotoxicity against human HepG2 cells; type: functional, cell-based
# [3] = target: Serine/threonine-protein kinase mTOR (Homo sapiens, UniProt P42345); assay: Inhibition of mTOR (unknown origin)
# HCT-116 = assay: Cytotoxicity against human HCT-116 cells; type: functional, cell-based
# [4] = target: Dual specificity mitogen-activated protein kinase kinase 1 (Homo sapiens, UniProt Q02750); assay: Inhibition of MEK1 (unknown origin)
# MDA-MB-231 = assay: Cytotoxicity against human MDA-MB-231 cells; type: functional, cell-based
# Raji = assay: Cytotoxicity against human Raji cells; type: functional, cell-based
# U-937 = assay: Cytotoxicity against human U-937 cells; type: functional, cell-based
# PC-3 [5] = assay: Antiproliferative activity against human PC-3 cells; type: functional, cell-based
# KG-1 = assay: Cytotoxicity against human KG-1 cells; type: functional, cell-based
# HepG2 [6] = assay: Antitumor activity against human HepG2 cells xenografted in nude mouse assessed as reduction in tumor increment rate at 5 mg/kg/day (reference value: 100%); type: functional; parameters: scale not given: the % may be the effect or the level left
# MGC-803 = assay: Antiproliferative activity against human MGC-803 cells
# SNU-423 = assay: Antiproliferative activity against human SNU-423 cells; type: functional, cell-based
# MDA-MB-453 = assay: Antiproliferative activity against human MDA-MB-453 cells; type: functional, cell-based
# RT-112 = assay: Antiproliferative activity against human RT-112 cells; type: functional, cell-based
# HeLa = assay: Antitumor activity against human HeLa cells xenografted in mouse assessed as reduction in tumor weight at 20 mg/kg/day, ip for 3 weeks; type: functional; parameters: scale not given: the % may be the effect or the level left
# [7] = Binding affinity to human nRNP
# [8] = target: Epidermal growth factor receptor (Homo sapiens, UniProt P00533); assay: Inhibition of EGFR (unknown origin)
# MCF7 [9] = assay: Induction of apoptosis in human MCF7 cells assessed as accumulation at G2/M phase at 10 uM (reference value: 10%); type: functional
# A2780 = assay: Induction of apoptosis in human A2780 cells assessed as accumulation at G2/M phase at 5 uM (reference value: 10%); type: functional
# Plasmodium falciparum [10] = assay: Antimalarial activity against CQ-sensitive Plasmodium falciparum D6; type: functional, organism-based
# Plasmodium falciparum [11] = assay: Antimalarial activity against multidrug resistant Plasmodium falciparum Dd2; type: functional, organism-based
# Lymphocyte = assay: Cytotoxicity against mouse spleen lymphocytes; type: toxicity, cell-based
# Plasmodium falciparum [12] = assay: Antimalarial activity against CQ-resistant Plasmodium falciparum 7G8; type: functional, organism-based
# UMUC3 = assay: Antiproliferative activity against human UMUC3 cells; type: functional, cell-based
# Tubulin = assay: Inhibition of tubulin polymerization (unknown origin); type: protein-complex assay, Homo sapiens
# RT-4 = assay: Antiproliferative activity against human RT-4 cells; type: functional, cell-based
# T-24 = assay: Antiproliferative activity against human T24 cells; type: functional, cell-based
# Huh-7 = assay: Cytotoxicity against human Huh-7 cells; type: functional, cell-based
# [13] = Cytotoxicity against human L02 cells; type: toxicity, cell-based
# SMMC-7721 = assay: Cytotoxicity against human SMMC-7721 cells; type: functional, cell-based
# [14] = Cytotoxicity against human MRC5 cells; type: toxicity, cell-based
# Plasmodium berghei [15] = assay: Antiplasmodial activity against Plasmodium berghei infected in mouse assessed as reduction in parasitaemia at 35 umol/kg, sc administered for 4 days; type: functional; parameters: scale not given: the % may be the effect or the level left; conditions: dose 35 µmol/kg, time 4 day
# Plasmodium berghei [16] = assay: Inhibition of hemozoin formation in Plasmodium berghei infected in mouse; type: functional
# Hemozoin = assay: Inhibition of beta-hematin formation
# Plasmodium berghei [17] = assay: Antiplasmodial activity against Plasmodium berghei infected in mouse assessed as reduction in parasitaemia at 105 umol/kg, po; type: functional; parameters: scale not given: the % may be the effect or the level left; conditions: dose 105 µmol/kg
# MCF7 [18] = assay: Antiproliferative activity against human MCF7 cells; type: functional, cell-based; conditions: Homo sapiens, MCF7
# G-361 = assay: Antiproliferative activity against human G-361 cells; type: functional, cell-based; conditions: read-out: IC50
# [19] = target: Prostaglandin G/H synthase 2 (Homo sapiens, UniProt P35354)
# Description: Inhibition of COX-2 (unknown origin)
# LNCaP C4-2B = assay: Antiproliferative activity against human LNCaP C4-2B cells; type: functional, cell-based
# DU-145 = assay: Antiproliferative activity against human DU-145 cells; type: functional, cell-based
# CWR22R = assay: Antiproliferative activity against human 22Rv1 cells; type: functional, cell-based
# PC-3 [20] = assay: Antitumor activity against human PC-3 cells xenografted in nude mouse assessed as cell growth inhibition at 100 mg/kg/day, ig administered for 21 days; type: functional; parameters: scale not given: the % may be the effect or the level left; conditions: time 21 day
# PC-3 [21] = assay: Antitumor activity against human PC-3 cells xenografted in nude mouse assessed as cell growth inhibition at 50 mg/kg/day, ig administered for 21 days; type: functional; parameters: scale not given: the % may be the effect or the level left; conditions: time 21 day
# Plasmodium falciparum [22] = assay: Selectivity index, ratio of IC50 for Chloroquine resistant Plasmodium falciparum W2 to IC50 for Chloroquine sensitive Plasmodium falciparum 3D7; type: functional
# Plasmodium falciparum [23] = assay: Antimalarial activity against CQ-sensitive Plasmodium falciparum 3D7; type: functional, organism-based
# Plasmodium falciparum [24] = assay: Antimalarial activity against CQ-resistant Plasmodium falciparum W2; type: functional, organism-based
# Plasmodium falciparum [25] = assay: Antimalarial activity against CQ-resistant Plasmodium falciparum RKL9; type: functional, organism-based
# Plasmodium berghei [26] = assay: Antiplasmodial activity against Plasmodium berghei infected in mouse assessed as reduction in parasitaemia at 200 mg/kg/day, ip administered for 4 days; type: functional; parameters: scale not given: the % may be the effect or the level left; conditions: time 4 day
# Chain of Epidermal growth factor receptor (P00533 whole entry): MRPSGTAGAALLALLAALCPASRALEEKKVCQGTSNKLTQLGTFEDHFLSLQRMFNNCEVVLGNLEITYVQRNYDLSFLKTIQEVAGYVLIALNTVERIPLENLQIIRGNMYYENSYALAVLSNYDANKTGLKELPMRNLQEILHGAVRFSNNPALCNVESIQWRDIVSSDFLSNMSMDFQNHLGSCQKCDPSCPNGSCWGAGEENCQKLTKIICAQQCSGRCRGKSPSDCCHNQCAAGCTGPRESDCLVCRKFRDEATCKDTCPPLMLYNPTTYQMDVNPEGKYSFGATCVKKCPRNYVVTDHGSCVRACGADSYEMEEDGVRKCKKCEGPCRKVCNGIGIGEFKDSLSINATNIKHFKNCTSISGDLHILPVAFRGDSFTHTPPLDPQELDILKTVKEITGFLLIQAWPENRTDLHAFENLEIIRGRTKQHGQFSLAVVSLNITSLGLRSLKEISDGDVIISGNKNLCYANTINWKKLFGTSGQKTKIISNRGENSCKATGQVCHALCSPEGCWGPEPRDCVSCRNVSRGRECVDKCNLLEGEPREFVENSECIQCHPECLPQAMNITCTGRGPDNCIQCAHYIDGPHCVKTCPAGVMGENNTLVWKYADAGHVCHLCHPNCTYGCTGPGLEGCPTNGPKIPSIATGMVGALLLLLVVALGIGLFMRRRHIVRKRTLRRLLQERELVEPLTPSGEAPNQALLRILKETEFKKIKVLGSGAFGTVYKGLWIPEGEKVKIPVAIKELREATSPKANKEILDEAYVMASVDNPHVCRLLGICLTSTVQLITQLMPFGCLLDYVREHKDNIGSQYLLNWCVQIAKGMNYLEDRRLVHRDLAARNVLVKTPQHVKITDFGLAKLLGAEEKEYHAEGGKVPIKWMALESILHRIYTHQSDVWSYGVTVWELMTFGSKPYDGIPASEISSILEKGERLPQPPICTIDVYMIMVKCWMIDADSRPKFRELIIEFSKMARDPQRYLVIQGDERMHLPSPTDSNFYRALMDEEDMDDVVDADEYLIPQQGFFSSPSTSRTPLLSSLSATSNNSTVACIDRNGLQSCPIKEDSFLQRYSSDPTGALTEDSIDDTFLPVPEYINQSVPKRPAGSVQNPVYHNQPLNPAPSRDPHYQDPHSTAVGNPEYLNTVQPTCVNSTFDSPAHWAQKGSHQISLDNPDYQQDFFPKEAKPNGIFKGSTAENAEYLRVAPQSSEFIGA
# Chain of Prostaglandin G/H synthase 2 (P35354 whole entry): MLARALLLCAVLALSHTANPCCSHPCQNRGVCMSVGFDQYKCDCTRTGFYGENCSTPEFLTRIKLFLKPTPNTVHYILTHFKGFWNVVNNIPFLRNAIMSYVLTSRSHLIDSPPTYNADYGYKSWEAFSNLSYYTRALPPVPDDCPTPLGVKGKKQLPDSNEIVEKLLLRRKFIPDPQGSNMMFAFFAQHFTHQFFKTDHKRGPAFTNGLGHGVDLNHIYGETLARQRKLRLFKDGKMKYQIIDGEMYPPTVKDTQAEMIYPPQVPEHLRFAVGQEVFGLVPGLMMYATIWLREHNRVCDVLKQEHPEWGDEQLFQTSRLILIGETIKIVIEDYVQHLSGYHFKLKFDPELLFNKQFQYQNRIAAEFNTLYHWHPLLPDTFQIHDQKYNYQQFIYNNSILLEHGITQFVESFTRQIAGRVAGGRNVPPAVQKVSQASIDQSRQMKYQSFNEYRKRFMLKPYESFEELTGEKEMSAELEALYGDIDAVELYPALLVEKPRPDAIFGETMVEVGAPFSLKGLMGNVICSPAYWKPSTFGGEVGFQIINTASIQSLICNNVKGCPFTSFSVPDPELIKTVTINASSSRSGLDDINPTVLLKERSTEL
# Chain of Dual specificity mitogen-activated protein kinase kinase 1 (Q02750 whole entry): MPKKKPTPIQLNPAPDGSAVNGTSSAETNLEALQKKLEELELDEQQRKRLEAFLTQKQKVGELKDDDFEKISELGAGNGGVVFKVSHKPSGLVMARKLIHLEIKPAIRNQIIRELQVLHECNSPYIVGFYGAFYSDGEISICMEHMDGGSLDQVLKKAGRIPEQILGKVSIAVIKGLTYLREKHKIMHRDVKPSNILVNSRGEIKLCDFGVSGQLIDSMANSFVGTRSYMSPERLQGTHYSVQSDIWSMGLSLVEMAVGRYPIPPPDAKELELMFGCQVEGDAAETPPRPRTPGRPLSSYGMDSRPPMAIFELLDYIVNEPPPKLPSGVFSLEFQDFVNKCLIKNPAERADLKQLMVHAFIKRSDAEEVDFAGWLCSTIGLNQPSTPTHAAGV
smiles,measurement,setting,value
Cc1cc2nc(-c3cc4ccccc4nc3Cl)[nH]c2cc1C,IC50,BEL-7404 tumor cell line,7.54 µM
same,Activity,HepG2 [1],19.5%
same,IC50,NCI-H460,7.54 µM
same,IC50,SK-OV-3,7.54 µM
same,IC50,"HepG2 [2]; Homo sapiens, HepG2",7.54 µM
Cc1c(Cc2cccc(N(C)S(=O)(=O)CCCNCCCC(=O)N3CCN(c4ccc(Nc5c(C(N)=O)cnc6ccc(-c7cnc8ccccc8c7)cc56)cc4C(F)(F)F)CC3)c2)c(=O)oc2cc(OC(=O)N(C)C)ccc12,IC50,[3],0.19 µM
same,GI50,HCT-116,4.66 µM
same,IC50,[4],0.98 µM
O=C(Nc1ccc(NC(=O)c2ccc(Nc3ccnc4ccccc34)cc2)cc1)OCc1ccccc1,IC50,MDA-MB-231,0.3 µM
same,IC50,Raji,0.3 µM
same,IC50,U-937,0.3 µM
same,IC50,PC-3 [5],0.3 µM
same,IC50,KG-1,0.3 µM
CC(=O)O[C@H]1C(=O)[C@@]2(C)[C@H]([C@H](OC(=O)c3ccccc3)[C@]3(O)C[C@H](OC(=O)[C@H](O)[C@@H](NC(=O)c4ccccc4)c4ccccc4)C(C)=C1C3(C)C)[C@]1(OC(C)=O)CO[C@@H]1C[C@@H]2O [PACLITAXEL],Activity,HepG2 [6],19%
O=c1[nH]cc(F)c(=O)[nH]1 [FLUOROURACIL],IC50,MGC-803,10.4 µM
same,IC50,BEL-7404 tumor cell line,26.3 µM
same,IC50,SNU-423,7.4 µM
same,IC50,NCI-H460,26.3 µM
same,IC50,HCT-116,5.3 µg/mL
same,IC50,SK-OV-3,26.3 µM
same,IC50,MDA-MB-453,7.4 µM
same,IC50,PC-3 [5],10.4 µM
same,IC50,"HepG2 [2]; Homo sapiens, HepG2",5.3 µg/mL
same,IC50,HepG2 [2]; hepg2,26.3 µM
same,IC50,RT-112,7.4 µM
COc1ccc(C(=O)/C=C/c2cc(N3CCOCC3)c3cc([N+](=O)[O-])ccc3n2)cc1,Activity,HeLa,69.3%
same,Kd,[7],4.6 µM
Cc1ccc2nc(/C=C/c3ccc(N(C)C)cc3)cc(-c3nnc(N)s3)c2c1,IC50,HCT-116,7.7 µg/mL
same,IC50,[8],1.11 µM
same,IC50,"HepG2 [2]; Homo sapiens, HepG2",7.7 µg/mL
COc1cc(C(=O)/C=C/c2c(Cl)nc3c(C(=O)c4ccccc4)cccc3c2OC)cc(OC)c1OC,Activity,MCF7 [9],50%
same,Activity,A2780,50%
Clc1ccc2c(NCCCN3CCC(Nc4ccnc5cc(Cl)ccc45)CC3)ccnc2c1,IC50,Plasmodium falciparum [10],0.00015 µM
same,IC50,Plasmodium falciparum [11],0.00036 µM
same,LC50,Lymphocyte,0.19 µM
same,IC50,Plasmodium falciparum [12],0.00033 µM
COc1cc(N(CCCSC(=S)N2CCN(C(C)=O)CC2)S(=O)(=O)c2cccc3cccnc23)cc(OC)c1OC,IC50,UMUC3,0.9 µM
same,IC50,SNU-423,0.7 µM
same,IC50,Tubulin,2.9 µM
same,IC50,MDA-MB-453,0.7 µM
same,IC50,RT-4,1.9 µM
same,IC50,RT-112,0.7 µM
same,IC50,T-24,2.6 µM
COc1ccc(/C=N/NC(=O)c2ccc(Nc3ccnc4ccccc34)cc2)cc1OC,IC50,Huh-7,6.3 µM
same,IC50,[13],16.1 µM
same,IC50,"HepG2 [2]; Homo sapiens, HepG2",126 µM
same,IC50,SMMC-7721,6.3 µM
same,IC50,[14],16.1 µM
C[C@@H]1CCC2[C@@H](C)[C@H](OC(=O)CCC(=O)OCCNc3ccnc4cc(Cl)ccc34)O[C@@H]3O[C@@]4(C)CC[C@@H]1[C@@]23OO4 (stereo partly drawn),Activity,Plasmodium berghei [15],95.2%
same,inhibition (INH),Plasmodium berghei [16],71.9%
same,IC50,Hemozoin,560 µM
same,Activity,Plasmodium berghei [17],78.6%
COc1ccc2ccc(F)c(CC(=O)N/N=C/c3cccc(C(F)(F)F)c3)c2n1,IC50,MCF7 [18],2.07 µM
same,IC50,G-361,2.07 µM
same,IC50,[19],0.13 µM
COc1cc(N(CCSC(=S)N2CCN(CCO)CC2)S(=O)(=O)c2cccc3cccnc23)cc(OC)c1OC,IC50,LNCaP C4-2B,0.67 µM
same,IC50,DU-145,0.67 µM
same,IC50,CWR22R,0.67 µM
same,Activity,PC-3 [20],61.4%
same,IC50,Tubulin,4.02 µM
same,IC50,PC-3 [5],0.43 µM
same,Activity,PC-3 [21],35.6%
CN1CCN(CCNCc2ccc(-c3cc(-c4ccc(CNCCN5CCN(C)CC5)cc4)c4ccccc4n3)cc2)CC1,Ratio IC50,Plasmodium falciparum [22],20
same,IC50,Plasmodium falciparum [23],2.42 µM
same,IC50,Plasmodium falciparum [24],0.13 µM
Cc1ccc(/C=C2/SC(c3ccc(Cl)cc3)N(Nc3cc(C)c4ccccc4n3)C2=O)cc1 (stereo not drawn),IC50,Plasmodium falciparum [25],0.824 µg/mL
same,Activity,Plasmodium berghei [26],73.4%
same,IC50,Plasmodium falciparum [23],0.423 µg/mL
